Results: patent publication US12448383B2, “Compounds and methods for treatment of viral infections” (priority 2022, dated 2025)

Tests used:
[1] = tested on: Respiratory syncytial virus recombinant with luciferase (RSV-Luc5) in HEp-2 cells; assay: microbe, parasite or virus in culture; format: cell-based; settings: human respiratory syncytial virus, HEp-2, 72 h, read-out: RSV Hep2 EC50
[2] = tested on: SARS Coronavirus 2 recombinant with NanoLuc (SARS-CoV2-NLuc) in A549-hACE2 cells; assay: organism not typed; format: cell-based; settings: 48 h; read-out: SARS-CoV2 EC50
[3] = tested on: Respiratory syncytial virus recombinant with luciferase (RSV-Luc5) in Normal Human Bronchial Epithelial (NHBE) cells; assay: microbe, parasite or virus in culture; format: cell-based; settings: 72 h, read-out: RSV NHBE EC50
[4] = CC50 MT4 cytotoxicity (Cell-Titer Glo); format: cell-based; settings: human
Procedure, shortened: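 Uninfected MT-4 and HEp-2 cells cultured 4-5 days at 37° C with 3-fold serially diluted compound (15 nM to 100,000 nM). Viability read by Cell-Titer Glo luminescence; untreated and 2 μM puromycin wells set 100% and 0%. CC50 from non-linear regression as concentration reducing viability by 50%.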

GI S9 stability = format: in vitro ADME; settings: human, s9, pH 7.4
Procedure: Example G: GI S9 Stability
Duplicate aliquots of test compound or positive control substrate (GS-7340) were added to S9 stock diluted with 100 mM phosphate buffered saline, pH 7.4, to obtain a protein concentration of 1.0 mg/mL. The S9 metabolic reactions were initiated by the addition of the substrates to the S9 reaction mixture to a final concentration of 2 μM. At 0, 10, 20, 30, 60 and 120 min, […] aliquots of the reaction mixture were transferred to plates containing […] of IS/Q solution. After quenching, the plates were centrifuged at 3000 g for 30 minutes, and 150 μL aliquots of each supernatant were diluted with 150 μL water. Aliquots ([…]) of the diluted supernatant were analyzed on a Thermo Q-Exactive mass spectrometer as described below. GI S9 Stability—No phenylmethylsulfonyl fluoride (PMSF): Similar to the procedure described above, test compounds were incubated at 2 μM with 1 mg/mL PMSF-free Intestinal S9 fractions. Samples are removed at 6 time points over the course of a 120 min experiment and the parent compound disappreance and reference compound A formation is determined by mass spectrometry.
Example K: Liquid Chromatography/Mass Spectroscopy Methods for S9 and Plasma Stability
Quantification of test compounds, Reference Compound A (S9 stability assay nucleoside metabolite), and controls was performed by analyte/internal standard peak area ratio (PAR) values measured on a Thermo Q-Exactive mass spectrometer coupled to a Dionex UltiMate 3000 HPLC with a Leap Technologies HTC PAL autosampler. The column used for analysis of test compounds and Reference Compound A was a Waters Acquity BEH C18 ([…] particle size, 2.1′50 mm). The column used for control (GS-7340) was a Thermo Hypersil GOLD ([…] particle size, 2.1′50 mm). Mobile phase A consisted of 0.1% (v/v) formic acid in water. Mobile phase B consisted of 0.1% (v/v) formic acid in acetonitrile. Elution of analytes was achieved by a series of linear gradients of acetonitrile in water containing 0.1°(v/v) formic acid. The mass spectrometer was calibrated on a weekly basis and mass tolerance of 5 ppm was used.

Plasma stability = format: in vitro ADME; set-up: unit not given here; settings: 37° C., 2 μM substrate
Procedure, shortened: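 Reaction mixture was sampled at 0.05, 0.5, 1, 2, 3 and 4 hr into quench solution containing internal standard, then centrifuged and diluted with water. Remaining analyte was measured by LC-MS on a Q-Exactive using a formic acid/acetonitrile gradient, with 5 ppm mass tolerance.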

[5] = GI S9 stability - no PMSF; format: in vitro ADME; settings: pH 7.4; human intestinal S9, PMSF-free; read-out: GIS9-HUMAN-NoPMSF T1/2
Procedure, shortened: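 Compounds were incubated at 2 μM with PMSF-free intestinal S9 (1 mg/mL protein) in 100 mM PBS, pH 7.4, sampling at 6 time points over 120 min. Parent disappearance and formation of the nucleoside metabolite Reference Compound A were quantified by LC-MS (Q-Exactive) using analyte/internal standard peak area ratios.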

[6] = tested on: Caco-2 cells (clone C2BBe1); assay: CACO-2 permeability; format: in vitro ADME; set-up: unit not given here; settings: for DM Caco2 A to B: apical to basolateral, donor pH 6.5, receiver pH 7.4; for DM Caco2 B to A: basolateral to apical
Procedure, shortened: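 Caco-2 monolayers grown 21 days on collagen-coated transwells and checked for integrity by TEER. Donor buffer was HBSS/HEPES/glucose pH 6.5 with 200 μM BNPP; receiver was pH 7.4 with BSA. Compounds were dosed apically or basolaterally for A-to-B and B-to-A transport, with receiver sampling at 1 and 2 h, LC-MS/MS analysis and percent recovery.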

[7] = Thermodynamic solubility in pH7 buffered solution; settings: 50 mM phosphate buffer pH7, 150 mM NaCl, ambient temperature, 24 hours
Procedure: Solubility was determined at ambient temperature in a 50 mM phosphate buffered pH7 solution with 150 mM NaCl (to achieve isotonicity). Solids were added to the buffered solution in 1.5-mL Eppendorf tubes, vortexed for 1 minute, then agitated for 24 hours in an Eppendorf ThermoMixer C. […] Supernatants were diluted to a volume of 1 mL with 30:70 v/v acetonitrile:water. All diluted supernatants were analyzed by UPLC using a Waters Acquity UPLC with a PDA UV detector.

[8] = Stability in pH2 buffered solution; format: physicochemical; settings: pH2 phosphate buffer, 40° C., 24 h; Table N2
Procedure: (§1) Example N: Stability in p112 and p117 Buffered Solutions
(§2) The aqueous stability of compounds over a time of 24 hours at 40° C. was assessed. Stability was determined in 50 mM phosphate buffered solutions at both pH2 and pH7, with 150 mM NaCl (to achieve isotonicity). 3-5 mg of solid compounds were added to 7 mL scintillation vials. Acetonitrile was added to each vial to produce a 1 mg/mL stock solution. Stock solutions were diluted to 50 μg/mL in either pH2 or pH7 phosphate buffer, to a volume of 1 mL. For each compound and pH condition, 50 μg/mL samples were prepped in duplicate. One sample was placed on the UPLC tray at 40° C. for analysis, and the second sample was placed in a 40° C. oven for storage. Sample preps for each compound were offset by 40 minutes to account for run time on UPLC.
(§3) Concentration timepoints were measured at 0, 3, 6, 9, and 12 hrs. After 24 hrs, samples in the 40° C. oven were removed and analyzed by UPLC.
(§4) In FIG. 2, % AN stands for % area normalized. That is, % AN is the area of the compound peak relative to the sum of areas of all the peaks in the UPLC chromatogram. For example, if there were two peaks, compound peak with an area of 9 and another peak with an area of 1, then the % AN of the compound peak would be 90%.

[9] = Stability in pH7 buffered solution; format: physicochemical; settings: pH7 phosphate buffer, 40° C., Table N2
Procedure: as §1, §2, §3, §4

SMILES	EC50 [1] [µM]	EC50 [2] [µM]	EC50 [3] [µM]	CC50 [4] [µM]	half-life at 2 µM (GI S9 stability) [min]	STA Human Plasma 37 (Plasma stability)	half-life at 2 µM [5] [min]	DM Caco2 A to B [6]	DM Caco2 B to A [6]	Sol pH 7 [7]	pH 2 Stability 24 h % AN [8] [% AN]	pH 7 Stability 24 h % AN [9] [% AN]
N#C[C@@]1(c2ccc3c(N)ncnn23)O[C@H](COC(=O)OC2CCOC2)[C@@H](O)[C@H]1O (stereo partly drawn) [Compound 11, ((2R,3S,4R,5R)-5-(4-aminopyrrolo[2,1-f][1,2,4]triazin-7-yl)-5-cyano-3,4-dihydroxytetrahydrofuran-2-yl)methyl (tetrahydrofuran-3-yl) carbonate]	4.94	20.6	2.92	> 50	≥ 789	135.19						
CCOC(=O)C(C)(C)OC(=O)OC[C@H]1O[C@@](C#N)(c2ccc3c(N)ncnn23)[C@H](O)[C@@H]1O [Compound 77, Ethyl 2-(((((2R,3S,4R,5R)-5-(4-aminopyrrolo[2,1-f][1,2,4]triazin-7-yl)-5-cyano-3,4-dihydroxytetrahydrofuran-2-yl)methoxy)carbonyl)oxy)-2-methyl propanoate]		> 50	≥ 50	> 50		383.67	792	0.27	5.58	4.64	98	95
CCOC(=O)OC[C@H]1O[C@@](C#N)(c2ccc3c(N)ncnn23)[C@H](OC(=O)OCC)[C@@H]1OC(=O)OCC [Compound 106, (2R,3R,4R,5R)-2-(4-aminopyrrolo[2,1-f][1,2,4]triazin-7-yl)-2-cyano-5-(((ethoxycarbonyl)oxy)methyl)tetrahydrofuran-3,4-diyl diethyl bis(carbonate)]		4.56	1.4	> 50		30.917	0.66	4.975	9.5	0.08	100	91
CC(=O)O[C@H]1[C@@H](OC(C)=O)[C@](C#N)(c2ccc3c(N)ncnn23)O[C@@H]1COC(=O)OC(C)(C)c1ccncc1 [Compound 79, (2R,3R,4R,5R)-2-(4-aminopyrrolo[2,1-f][1,2,4]triazin-7-yl)-2-cyano-5-(((((2-(pyridin-4-yl)propan-2-yl)oxy)carbonyl)oxy)methyl)tetrahydrofuran-3,4-diyl diacetate]		> 50	> 50	> 50		17.837	0.681	0.61	9.26	0.26	88	77
COC(=O)OC[C@H]1O[C@@](C#N)(c2ccc3c(N)ncnn23)[C@H](OC(=O)OC)[C@@H]1OC(=O)OC [Compound 93, (2R,3R,4R,5R)-2-(4-aminopyrrolo[2,1-f][1,2,4]triazin-7-yl)-2-cyano-5-(((methoxycarbonyl)oxy)methyl)tetrahydrofuran-3,4-diyl dimethyl bis(carbonate)]		10.6	11.1	31.7		28.444	1.02	1.2	8.3	0.62	94	75
COC(=O)[C@H]([C@@H](C)OC(=O)OC[C@H]1O[C@@](C#N)(c2ccc3c(N)ncnn23)[C@H](O)[C@@H]1O)N(C)C [Compound 78, methyl O-((((2R,3S,4R,5R)-5-(4-aminopyrrolo[2,1-f][1,2,4]triazin-7-yl)-5-cyano-3,4-dihydroxytetrahydrofuran-2-yl)methoxy)carbonyl)-N,N-dimethyl-L-threoninate]		3.58	3.6	> 50		336.23	72.1	0.2	4.2	0.89	90	0
CC(C)COC(=O)OC[C@H]1O[C@@](C#N)(c2ccc3c(N)ncnn23)[C@H](OC(=O)C(C)C)[C@@H]1OC(=O)C(C)C [Compound 16, (2R,3R,4R,5R)-2-(4-aminopyrrolo[2,1-f][1,2,4]triazin-7-yl)-2-cyano-5-(((isobutoxycarbonyl)oxy)methyl)tetrahydrofuran-3,4-diyl bis(2-methylpropanoate)]	1.15	2.57	0.981	27.8	1.01	30.6						
CC(C)OC(=O)OC[C@H]1O[C@@](C#N)(c2ccc3c(N)ncnn23)[C@H](OC(=O)OC(C)C)[C@@H]1OC(=O)OC(C)C [Compound 81, (2R,3R,4R,5R)-2-(4-aminopyrrolo[2,1-f][1,2,4]triazin-7-yl)-2-cyano-5-(((isopropoxycarbonyl)oxy)methyl)tetrahydrofuran-3,4-diyl diisopropyl bis(carbonate)]		24.4	0.996	48.3		195.87	0.688	7.77	14.74	0.06	100	98
